Literature values in patent US7390922B2, “Phenolic acid salts of gabapentin in liquid and/or semi-solid dosage forms and methods of use” (Kiel Laboratories, Inc., priority 2003, dated 2008).

How the values were obtained:
[1] = in water and across a wide range of pH
[2] = molecular target: gb1a-gb^2 heterodimer and post-synaptic GABAB receptor (Homo sapiens, UniProt Q9UBS5)
Sequence of gb1a-gb^2 heterodimer and post-synaptic GABAB receptor (Q9UBS5 15-961 limits assumed): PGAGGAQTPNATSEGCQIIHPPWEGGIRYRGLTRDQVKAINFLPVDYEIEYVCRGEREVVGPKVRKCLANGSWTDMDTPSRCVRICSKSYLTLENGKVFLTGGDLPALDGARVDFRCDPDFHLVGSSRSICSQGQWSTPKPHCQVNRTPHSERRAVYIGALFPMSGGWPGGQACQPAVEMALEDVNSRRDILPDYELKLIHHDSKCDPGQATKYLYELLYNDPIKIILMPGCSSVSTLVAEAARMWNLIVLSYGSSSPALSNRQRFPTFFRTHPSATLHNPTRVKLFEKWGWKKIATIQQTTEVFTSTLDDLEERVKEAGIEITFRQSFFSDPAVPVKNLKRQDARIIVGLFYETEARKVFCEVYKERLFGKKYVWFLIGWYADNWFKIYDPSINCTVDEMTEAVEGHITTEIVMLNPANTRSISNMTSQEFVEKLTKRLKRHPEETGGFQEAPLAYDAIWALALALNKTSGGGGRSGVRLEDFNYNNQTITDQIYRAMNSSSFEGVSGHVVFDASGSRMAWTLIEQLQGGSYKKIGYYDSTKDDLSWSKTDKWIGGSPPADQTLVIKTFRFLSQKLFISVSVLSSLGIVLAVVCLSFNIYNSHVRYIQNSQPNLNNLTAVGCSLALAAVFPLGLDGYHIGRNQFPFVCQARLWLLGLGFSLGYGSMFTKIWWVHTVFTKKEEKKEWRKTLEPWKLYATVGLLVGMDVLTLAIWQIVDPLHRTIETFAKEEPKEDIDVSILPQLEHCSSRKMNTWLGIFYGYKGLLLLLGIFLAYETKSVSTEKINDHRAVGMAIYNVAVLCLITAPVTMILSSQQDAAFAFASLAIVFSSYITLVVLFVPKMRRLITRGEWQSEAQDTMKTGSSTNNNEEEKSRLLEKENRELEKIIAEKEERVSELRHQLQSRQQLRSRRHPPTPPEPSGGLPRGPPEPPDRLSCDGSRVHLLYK
Sequence of gb1a-gb^2 heterodimer and post-synaptic GABAB receptor (O75899 42-941 partner): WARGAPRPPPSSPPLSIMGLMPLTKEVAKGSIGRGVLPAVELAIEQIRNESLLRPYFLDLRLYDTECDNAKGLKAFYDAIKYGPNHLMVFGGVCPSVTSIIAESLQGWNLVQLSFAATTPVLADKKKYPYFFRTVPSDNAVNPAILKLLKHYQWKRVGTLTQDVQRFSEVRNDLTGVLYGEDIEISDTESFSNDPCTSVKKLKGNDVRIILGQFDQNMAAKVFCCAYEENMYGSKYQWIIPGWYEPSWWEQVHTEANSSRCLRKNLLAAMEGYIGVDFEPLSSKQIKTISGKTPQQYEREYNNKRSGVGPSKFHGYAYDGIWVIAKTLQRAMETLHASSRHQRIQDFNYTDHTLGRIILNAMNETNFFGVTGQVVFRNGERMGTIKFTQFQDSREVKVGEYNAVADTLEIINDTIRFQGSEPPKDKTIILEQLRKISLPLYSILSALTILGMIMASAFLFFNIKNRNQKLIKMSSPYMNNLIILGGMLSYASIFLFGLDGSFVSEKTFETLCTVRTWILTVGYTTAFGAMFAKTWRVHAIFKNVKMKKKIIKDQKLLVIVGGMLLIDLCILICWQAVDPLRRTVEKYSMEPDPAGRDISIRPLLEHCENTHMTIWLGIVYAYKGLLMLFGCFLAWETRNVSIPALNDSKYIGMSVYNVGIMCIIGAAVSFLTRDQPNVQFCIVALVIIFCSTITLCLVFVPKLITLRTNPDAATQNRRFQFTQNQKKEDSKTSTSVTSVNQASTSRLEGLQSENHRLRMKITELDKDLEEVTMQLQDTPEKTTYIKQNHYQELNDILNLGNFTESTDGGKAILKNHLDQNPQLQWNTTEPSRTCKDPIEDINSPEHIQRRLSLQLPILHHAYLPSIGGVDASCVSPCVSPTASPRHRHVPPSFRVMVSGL

SMILES: NCC1(CC(=O)O)CCCCC1 [gabapentin, l-(amino methyl) cyclohexaneacetic acid]
- time of peak plasma gabapentin concentrations (adults, post-dose): 2 to 3 h
- absolute bioavailability (after administration of 300 mg, dose-dependent): approximately 60%
- metabolism (in vivo): is not metabolized
- plasma protein binding (in vivo): does not bind to plasma proteins
- route of elimination (in vivo): eliminated via glomerular filtration
- blood-brain barrier passage (unlike GABA): able to cross the blood-brain barrier
- solubility [1]: freely soluble in water
- receptor activity [2]: selective agonist
